Numbers after ± are expanded uncertainties.
What was measured:
[1] = for viscosity: 101.33 kPa, Liquid, rotational viscometer; for surface tension liquid-gas: Pendant drop shape
[2] = 298.15 K; 101 kPa; Liquid mixture 1; rotated drop method

`CCCCn1cc[n+](C)c1.F[P-](F)(F)(F)(F)F` [1-butyl-3-methylimidazolium hexafluorophosphate] gave a viscosity ([1]; 288.15 K) of 400.2 ± 16 mPa·s, a viscosity ([1]; 293.15 K) of 294 ± 12 mPa·s and a viscosity ([1]; 296.15 K) of 245.8 ± 10 mPa·s. It also gave a surface tension liquid-gas ([1]; 298.15 K) of 53.1 ± 2.5 mN/m, a viscosity ([1]; 298.15 K) of 217.9 ± 8.6 mPa·s and a viscosity ([1]; 301.15 K) of 182.7 ± 7.4 mPa·s. The viscosity ([1]; 303.15 K) was 162.9 ± 6.5 mPa·s, the viscosity ([1]; 305.15 K) was 145.1 ± 5.6 mPa·s and the viscosity ([1]; 308.15 K) was 123.2 ± 4.8 mPa·s. The viscosity ([1]; 311.15 K) was 104 ± 4.1 mPa·s and the viscosity ([1]; 313.15 K) was 95 ± 3.6 mPa·s.
For `CCCCn1cc[n+](C)c1.F[P-](F)(F)(F)(F)F` [1-butyl-3-methylimidazolium hexafluorophosphate] + C1CCCCC1, the interfacial tension [2] was 13.15 ± 0.26 mN/m.
`CCCCn1cc[n+](C)c1.F[P-](F)(F)(F)(F)F` [1-butyl-3-methylimidazolium hexafluorophosphate] + C=CCCCC gave an interfacial tension [2] of 10.42 ± 0.21 mN/m.
Work on `CCCCn1cc[n+](C)c1.F[P-](F)(F)(F)(F)F` [1-butyl-3-methylimidazolium hexafluorophosphate] + CCC(=O)O yielded an interfacial tension [2] of 3.292 ± 0.066 mN/m.
Work on `CCCCn1cc[n+](C)c1.F[P-](F)(F)(F)(F)F` [1-butyl-3-methylimidazolium hexafluorophosphate] + CCCCC yielded an interfacial tension [2] of 13.65 ± 0.27 mN/m.
In the case of `CCCCn1cc[n+](C)c1.F[P-](F)(F)(F)(F)F` [1-butyl-3-methylimidazolium hexafluorophosphate] + CCCCCC, the interfacial tension [2] is reported as 13.39 ± 0.27 mN/m.
`CCCCn1cc[n+](C)c1.F[P-](F)(F)(F)(F)F` [1-butyl-3-methylimidazolium hexafluorophosphate] + CCCCCCCC gave an interfacial tension [2] of 14.29 ± 0.28 mN/m.
In the case of `CCCCn1cc[n+](C)c1.F[P-](F)(F)(F)(F)F` [1-butyl-3-methylimidazolium hexafluorophosphate] + CCCCCCCCCCO, the interfacial tension [2] is reported as 7.516 ± 0.15 mN/m.
Work on `CCCCn1cc[n+](C)c1.F[P-](F)(F)(F)(F)F` [1-butyl-3-methylimidazolium hexafluorophosphate] + CCCCCCCCO yielded an interfacial tension [2] of 7.385 ± 0.15 mN/m.
With `CCCCn1cc[n+](C)c1.F[P-](F)(F)(F)(F)F` [1-butyl-3-methylimidazolium hexafluorophosphate] + CCCCCCCO the interfacial tension [2] was 6.41 ± 0.13 mN/m.
For `CCCCn1cc[n+](C)c1.F[P-](F)(F)(F)(F)F` [1-butyl-3-methylimidazolium hexafluorophosphate] + CCCCCCO, the interfacial tension [2] was 5.556 ± 0.11 mN/m.
In the case of `CCCCn1cc[n+](C)c1.F[P-](F)(F)(F)(F)F` [1-butyl-3-methylimidazolium hexafluorophosphate] + CCCCCO, the interfacial tension [2] is reported as 5.325 ± 0.11 mN/m.
Work on `CCCCn1cc[n+](C)c1.F[P-](F)(F)(F)(F)F` [1-butyl-3-methylimidazolium hexafluorophosphate] + CCCCO yielded an interfacial tension [2] of 4.706 ± 0.094 mN/m.
Work on `CCCCn1cc[n+](C)c1.F[P-](F)(F)(F)(F)F` [1-butyl-3-methylimidazolium hexafluorophosphate] + CCCCOC(C)=O yielded an interfacial tension [2] of 0.4344 ± 0.0087 mN/m.
Work on `CCCCn1cc[n+](C)c1.F[P-](F)(F)(F)(F)F` [1-butyl-3-methylimidazolium hexafluorophosphate] + CCO yielded an interfacial tension [2] of 1.222 ± 0.024 mN/m.
`CCCCn1cc[n+](C)c1.F[P-](F)(F)(F)(F)F` [1-butyl-3-methylimidazolium hexafluorophosphate] + CCOC(C)=O showed an interfacial tension [2] of 11.69 ± 0.23 mN/m.
`CCCCn1cc[n+](C)c1.F[P-](F)(F)(F)(F)F` [1-butyl-3-methylimidazolium hexafluorophosphate] + CCc1ccccc1 showed an interfacial tension [2] of 3.995 ± 0.08 mN/m.
`CCCCn1cc[n+](C)c1.F[P-](F)(F)(F)(F)F` [1-butyl-3-methylimidazolium hexafluorophosphate] + Cc1ccccc1 gave an interfacial tension [2] of 3 ± 0.06 mN/m.
Molecule `CCCCn1cc[n+](C)c1.F[P-](F)(F)(F)(F)F` [1-butyl-3-methylimidazolium hexafluorophosphate] + O has an interfacial tension [2] of 10.06 ± 0.2 mN/m.
Molecule `CCCCn1cc[n+](C)c1.F[P-](F)(F)(F)(F)F` [1-butyl-3-methylimidazolium hexafluorophosphate] + c1ccccc1 has an interfacial tension [2] of 2.209 ± 0.044 mN/m.
With `CC(C)=Cn1cc[n+](C)c1.F[B-](F)(F)F` [1-isobutenyl-3-methylimidazolium tetrafluoroborate] the viscosity ([1]; 288.15 K) was 214.2 ± 8.2 mPa·s, the viscosity ([1]; 293.15 K) was 158.7 ± 6.5 mPa·s and the viscosity ([1]; 296.15 K) was 133.4 ± 5.4 mPa·s. The surface tension liquid-gas ([1]; 298.15 K) was 51.8 ± 2.2 mN/m, the viscosity ([1]; 298.15 K) was 118.5 ± 4.6 mPa·s and the viscosity ([1]; 301.15 K) was 100.4 ± 4 mPa·s. For the same molecule, the viscosity ([1]; 303.15 K) was 88.9 ± 3.5 mPa·s, the viscosity ([1]; 305.15 K) was 79.8 ± 3.1 mPa·s and the viscosity ([1]; 308.15 K) was 68 ± 2.6 mPa·s. The viscosity ([1]; 311.15 K) was 58.6 ± 2.2 mPa·s and the viscosity ([1]; 313.15 K) was 53.4 ± 2 mPa·s.
With `CCCCCCCCCCCCO` [dodecan-1-ol] + CCCCn1cc[n+](C)c1.F[P-](F)(F)(F)(F)F the interfacial tension [2] was 8.788 ± 0.17 mN/m.
Work on `C=Cc1ccccc1` [styrene] + CCCCn1cc[n+](C)c1.F[P-](F)(F)(F)(F)F yielded an interfacial tension [2] of 1.793 ± 0.036 mN/m.
